# Biological target: T1, Human JNK 3 (Homo sapiens, UniProt P53779)
# T1 construct: made in house; host or cells: Escherichia coli
# Experiment: Determination of JNK 3 Inhibition
# Format: biochemical
# Conditions: 50% inhibitory concentration on the enzymatic activity of JNK; GST-JNK 3, substrate GST-c-Jun, 3.33 μM of ATP, 30 minutes
# Description: Human JNK 3 was expressed as a fusion protein (GST-JNK 3) with glutathione S-transferase (GST) in Escherichia coli and was purified using glutathione Sepharose 4B beads. The amino acid sequence 1-169 of c-Jun was […] as a fusion protein (GST-c-Jun) with GST in Escherichia coli, was purified using glutathione Sepharose 4B beads and was used as a substrate. A test compound was diluted with 100% dimethyl sulfoxide into 10 mM and was then further diluted with 10% aqueous dimethyl sulfoxide solution to yield a dilution series. To each well of 96-well OPTI plate (available from Packard) were placed 20 μl of the diluted compound, 30 μl of a substrate solution (1.2 μg of GST-c-Jun, […], 0.2 μCi of [γ-^33P]ATP, 25 mM of HEPES pH=7.5, 10 mM of magnesium acetate, and 3.33 μM of ATP), and 50 μl of an enzyme solution (0.04 μg of GST-JNK 3, 25 mM of HEPES pH=7.5, and 10 mM magnesium acetate) up to 100 μl, and the mixture was allowed to react for 30 minutes. After terminating the reaction by adding 100 μl of a reaction terminator (80 mM ATP, 50 mg/ml glutathione SPA beads (available from Amersham Pharmacia Biotech)), the reaction mixture was shaken for 30 minutes. The mixture was centrifuged at room temperature at 1000×g for 5 minutes, and the emission intensity thereof was determined on a TopCount™ illuminator (available from Packard). The activity is expressed by the 50% inhibitory concentration on the enzymatic activity of JNK, i.e., IC50 (nM).
# T1 sequence (P53779 whole entry): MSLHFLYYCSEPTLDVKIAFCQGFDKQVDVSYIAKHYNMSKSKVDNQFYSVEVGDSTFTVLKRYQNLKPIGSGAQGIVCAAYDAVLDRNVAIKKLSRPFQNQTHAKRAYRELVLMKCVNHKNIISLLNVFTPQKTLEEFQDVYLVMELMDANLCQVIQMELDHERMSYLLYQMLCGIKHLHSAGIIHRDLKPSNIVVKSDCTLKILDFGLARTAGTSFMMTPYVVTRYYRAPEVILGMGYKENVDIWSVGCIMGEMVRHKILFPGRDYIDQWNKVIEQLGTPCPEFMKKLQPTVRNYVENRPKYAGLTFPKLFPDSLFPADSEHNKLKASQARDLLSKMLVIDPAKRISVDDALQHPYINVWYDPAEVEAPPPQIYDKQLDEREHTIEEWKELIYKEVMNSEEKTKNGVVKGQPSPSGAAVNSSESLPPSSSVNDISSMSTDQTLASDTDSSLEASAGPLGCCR
row,IC50,SMILES
1,86 nM,"O=C(Nc1cc2c(-c3ccc4ccccc4c3)n[nH]c2cc1F)C1CC1 [Example II-184, Cyclopropanecarboxylic acid {6-fluoro-3-naphthalen-2-yl-1H-indazol-5-yl}-amide]"
2,55 nM,"O=C(Nc1ccc2[nH]nc(-c3ccc4ccccc4c3)c2c1)C1CCNCC1 [Example I-104, N4-[3-(2-Naphthyl)-1H-5-indazolyl]-4-piperidinecarboxamide]"
3,100 nM,"COc1c(C(=O)NCc2ccco2)ccc2[nH]nc(-c3cccc(F)c3)c12 [Example II-5, 3-(3-Fluoro-phenyl)-4-methoxy-1H-indazole-5-carboxylic acid (furan-2-ylmethyl)-amide]"
4,143 nM,C[C@H](NC(=O)c1ccc2[nH]nc(-c3cc4ccccc4s3)c2c1F)C(N)=O [Example II-126]
5,71 nM,"O=C(Cc1ccsc1)Nc1cc(F)c2[nH]nc(-c3cccc(F)c3)c2c1 [Example II-288, N-[7-Fluoro-3-(3-fluorophenyl)-1H-indazol-5-yl]-2-thiophen-3-ylacetamide]"
6,80 nM,"O=C(Cc1ccsc1)Nc1ccc2[nH]nc(-c3cn4ccccc4n3)c2c1 [Example I-163, N1-(3-Imidazo[1,2-a]pyridin-2-yl-1H-5-indazolyl)-2-(3-thienyl)acetamide]"
7,137 nM,"COc1c(C(=O)NCC2CC2)ccc2[nH]nc(-c3cc4ccccc4o3)c12 [Example II-93, 3-Benzo[b]furan-2-yl-4-methoxy-1H-indazole-5-carboxylic acid cyclopropylmethyl-amide]"
8,215 nM,"CS(=O)(=O)Nc1cc2c(-c3cc4ccccc4s3)n[nH]c2cc1F [Example II-218, N-(3-Benzo[b]thiophen-2-yl-6-fluoro-1H-indazol-5-yl)-methanesulfonamide]"
9,194 nM,"O=C(Cc1cccs1)Nc1cc2c(-c3ccc4ccccc4c3)n[nH]c2cc1F [Example II-189, N-(6-Fluoro-3-naphthalen-2-yl-1H-indazol-5-yl)-2-thiophen-2-yl-acetamide]"
10,143 nM,"COc1cccc(C(=O)NCc2cc3c(-c4ccc5ccccc5c4)n[nH]c3cc2F)c1 [Example II-208, N-{6-Fluoro-3-naphthalen-2-yl-1H-indazol-5-ylmethyl}-3-methoxy-benzamide]"
11,221 nM,"O=C(NC1CC1)c1ccc2[nH]nc(-c3cccc(F)c3)c2c1 [Example I-143, N5-Cyclopropyl-3-(3-fluorophenyl)-1H-5-indazolecarboxamide]"
12,163 nM,"CS(=O)(=O)Nc1ccc2[nH]nc(-c3ccc4ccccc4c3)c2c1 [Example I-94, N-[3-(2-Naphthyl)-1H-5-indazolyl]methanesulfonamide]"
13,113 nM,"O=C(c1ccccc1)c1ccc2[nH]nc(-c3cccc(F)c3)c2c1 [Example I-26, [3-(3-Fluorophenyl)-1H-5-indazolyl](phenyl)methanone]"
14,52 nM,"O=C(Nc1ccc2[nH]nc(-c3cc4ccccc4s3)c2c1)C1CCOC1 (centres unmarked) [Example I-55, N3-(3-Benzo[b]thiophen-2-yl-1H-5-indazolyl)tetrahydro-3-furancarboxamide]"
15,54 nM,"O=C(NCCCN1CCCC1=O)c1ccc2[nH]nc(-c3cc4ccccc4s3)c2c1 [Example I-137, N5-[3-(2-Oxotetrahydro-1H-1-pyrrolyl)propyl]-3-benzo[b]thiophen-2-yl-1H-5-indazolecarboxamide]"
16,148 nM,"O=C(N[C@@H]1CCOC1=O)c1cc(F)c2[nH]nc(-c3ccc4ccccc4c3)c2c1 [Example II-259, 7-Fluoro-3-naphthalen-2-yl-1H-indazole-5-carboxylic acid [(3R)-2-oxo-tetrahydrofuran-3-yl]amide]"
17,51 nM,"O=C(Cc1cccs1)Nc1ccc2[nH]nc(-c3cccc(F)c3)c2c1 [Example I-16, N1-[3-(3-Fluorophenyl)-1H-5-indazolyl]-2-(2-thienyl)acetamide]"
18,109 nM,"O=C(Nc1ccc2[nH]nc(-c3cc4ccccc4o3)c2c1)c1ccco1 [Example I-48, N2-(3-Benzo[b]furan-2-yl-1H-5-indazolyl)-2-furamide]"
19,84 nM,"CCCOc1c(C(=O)N[C@H](CO)C(C)C)ccc2[nH]nc(-c3cc4ccccc4o3)c12 [Example II-281, 3-Benzo[b]furan-2-yl-4-propoxy-1H-indazole-5-carboxylic acid ((1S)-1-hydroxymethyl-2-methyl-propyl)-amide]"
20,197 nM,"CC(=O)c1cccc(-c2n[nH]c3ccc(C(=O)N[C@@H](C)C(N)=O)cc23)c1 [Example I-132, N5-[(1S)-2-Amino-1-methyl-2-oxoethyl]-3-(3-acetylphenyl)-1H-5-indazolecarboxamide]"
